From publication PMC7429850, “Critical enzymes for biosynthesis of cucurbitacin derivatives in watermelon and their biological significance” (Communications Biology, 2020) come the findings set out here.

This assay deals with T1, ACT3 (Cla022713).
T1 construct: plant material in Methods: Number One
The assay is classed as biochemical, Citrullus lanatus. The conditions noted are these: 10 mM acetyl-CoA, 50 mM sodium phosphate pH 7.4, 30 °C; C16-O-acetylation. An excerpt:
acetylation assay, product by HPLC/LC-MS, Michaelis-Menten fit on ACT3 (Cla022713)
As to `CC(=O)OC(C)(C)/C=C/C(=O)[C@](C)(O)[C@H]1[C@H](O)C[C@@]2(C)[C@@H]3CC=C4[C@@H](C=C(O[C@@H]5O[C@H](CO)[C@@H](O)[C@H](O)[C@H]5O)C(=O)C4(C)C)[C@]3(C)C(=O)C[C@]12C` [CuE-Glu], the Km was found to be 11.6 ± 1.62 µM.
Take `CC(=O)OC(C)(C)/C=C/C(=O)[C@](C)(O)[C@H]1[C@H](O)C[C@@]2(C)[C@@H]3CC=C4[C@@H](C[C@H](O)C(=O)C4(C)C)[C@]3(C)C(=O)C[C@]12C` [CuB]: the Km is 11.8 ± 1.74 µM.
With `CC(C)(O)/C=C/C(=O)[C@](C)(O)[C@H]1[C@H](O)C[C@@]2(C)[C@@H]3CC=C4[C@@H](C=C(O)C(=O)C4(C)C)[C@]3(C)C(=O)C[C@]12C` [CuI], the Km was found to be 8.62 ± 0.95 µM.
Then `CC(=O)OC(C)(C)/C=C/C(=O)[C@](C)(O)[C@H]1[C@H](O)C[C@@]2(C)[C@@H]3CC=C4[C@@H](C=C(O)C(=O)C4(C)C)[C@]3(C)C(=O)C[C@]12C` [CuE], with 7.63 ± 4.83 µM; and `CC(C)(O)/C=C/C(=O)[C@](C)(O)[C@H]1[C@H](O)C[C@@]2(C)[C@@H]3CC=C4[C@@H](C[C@H](O)C(=O)C4(C)C)[C@]3(C)C(=O)C[C@]12C` [CuD], with 10.4 ± 1.19 µM.
